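Five concentrations, 48 hours, 96-well plates. The concentration for 50% growth inhibition is given as GI50. At the TGI there is no net growth.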
Experiments:
Assay in all cases: DTP human tumour cell line panel, 48 h
[1] = tested on: OVCAR-3 ovarian
[2] = tested on: SK-MEL-28 melanoma
[3] = tested on: SW-620 colon
[4] = tested on: UACC-62 melanoma
[5] = tested on: SF-295 CNS
[6] = tested on: RPMI-8226 leukemia
[7] = tested on: KM12 colon
[8] = tested on: HS 578T breast
[9] = tested on: T-47D breast
[10] = tested on: SR leukemia

Compound	TGI [1]	TGI [2]	TGI [3]	TGI [4]	TGI [5]	TGI [6]	TGI [7]	GI50 [1]	GI50 [2]	GI50 [3]	GI50 [5]	GI50 [8]	TGI [8]	GI50 [7]	GI50 [9]	TGI [9]	GI50 [4]	GI50 [10]	TGI [10]	GI50 [6]
CC(=O)C1C(=O)C(=O)N(CCN2C(=O)C(=O)C(C(C)=O)C2=O)C1=O (stereo not drawn)	> 100 µM	> 100 µM	> 100 µM	> 100 µM	> 100 µM	> 100 µM	> 100 µM													
CCN(CC)C(=S)SS(C)(=O)=O			35.2 µM	30 µM	98 µM		31.7 µM													
CCOCCOCCOCCOCCOCCOCCOCCOCCOCCO (tested in a mixture with another compound)	4.63 µM	> 32.5 µM	8.17 µM		4.12 µM		4.67 µM	0.476 µM	3.1 µM	1.56 µM	0.869 µM	1.81 µM	9.59 µM	1.2 µM	1.12 µM	7.16 µM				
CC(=O)OCC1OC(n2c(=S)n(-c3ccccc3)c(=O)c3cc(Br)ccc32)C(OC(C)=O)C1OC(C)=O (stereo not drawn)	> 100 µM	> 100 µM	> 100 µM	> 100 µM	> 100 µM	> 100 µM	> 100 µM													
CSc1ccc(C(=O)/C=C/c2ccc(Cl)cc2Cl)cc1	49.2 µM		56 µM	78.5 µM	> 100 µM	37.7 µM	51.8 µM	21.9 µM		22.2 µM	29.5 µM	28.6 µM	68.4 µM	22.2 µM			24.3 µM	0.351 µM	0.909 µM	14.7 µM
Cc1cc(Br)ccc1N=Nc1c(C)nn(-c2ccccc2)c1-c1ccccc1	> 100 µM	> 100 µM	> 100 µM	> 100 µM	> 100 µM	> 100 µM	> 100 µM												> 100 µM	
Cc1ccc(S(=O)(=O)NNS(C)(=O)=O)cc1	> 100 µM		> 100 µM	> 100 µM	> 100 µM	> 100 µM	> 100 µM												> 100 µM	
O=C1/C(=C/c2ccc(C(F)(F)F)cc2)COc2ccc(O)c(O)c21	1.84 µM	3.15 µM		2.87 µM	8.52 µM	0.607 µM	3.84 µM	0.514 µM	1.72 µM		3.15 µM	2.2 µM	6.02 µM	1.7 µM			1.48 µM	0.267 µM	2.53 µM	0.238 µM
O=C1C(Cl)=C(NCCCN(CCCNC2=C(Cl)C(=O)c3ccccc3C2=O)C2=C(Cl)C(=O)c3ccccc3C2=O)C(=O)c2ccccc21	5.71 µM	4.53 µM	4.9 µM	4.69 µM	14.7 µM	> 100 µM	12.8 µM	1.71 µM	2.15 µM	2.21 µM	3.07 µM	2.88 µM	> 100 µM	3 µM			1.98 µM			3.8 µM
N#Cc1ccc(C2SCc3nc4ccccc4n32)cc1 (stereo not drawn)	> 100 µM	> 100 µM	> 100 µM	> 100 µM	> 100 µM	> 100 µM	> 100 µM													
O=C(N/C(=C\c1ccc(/C=C(\NC(=O)c2ccccc2)c2nc3c(O)nc(S)nc3[nH]2)cc1)c1nc2c(O)nc(S)nc2[nH]1)c1ccccc1	> 100 µM	> 100 µM	> 100 µM	> 100 µM	> 100 µM	> 100 µM	> 100 µM													
O=C(C(=CN1CCN(C(=O)c2ccco2)C1=S)C(=O)c1ccccc1)c1ccccc1	23 µM	> 50 µM	20.3 µM	18.3 µM	33 µM	> 50 µM	11.5 µM	7.32 µM	17.8 µM	8.73 µM	11.1 µM			2.31 µM	> 50 µM	> 50 µM	6.93 µM	1.28 µM	6.72 µM	8.41 µM
NC(=O)c1ncn(C2OC(CO)C(O)C2O)c1O (stereo not drawn)	> 100 µM	> 100 µM	> 100 µM	> 100 µM	> 100 µM	> 100 µM	> 100 µM												> 100 µM	
Cc1cc(N2CCOCC2)nc(NCc2cc(Nc3ccnc4cc(Cl)ccc34)ccc2F)n1	3.16 µM	3.4 µM	3.28 µM	3.35 µM	3.03 µM	5.96 µM	3.21 µM	1.72 µM	1.83 µM	1.63 µM	1.59 µM			1.69 µM	1.38 µM	3.41 µM	1.75 µM	1.61 µM	3.82 µM	2.32 µM
COc1cc(-c2ccc[nH]2)[nH]c1/C=C1\N=C(C)C(CC(=O)OCC(C)(C)C)=C1C	1.15 µM	1.34 µM	1.48 µM	0.555 µM	0.51 µM		1.76 µM	0.254 µM	0.305 µM	0.192 µM	0.171 µM	0.256 µM	1.91 µM	0.267 µM	0.157 µM	0.887 µM	0.211 µM	0.122 µM	0.617 µM	
CCN(CC)c1c(C)nnn1C1OC(COC(C)=O)C(OC(C)=O)C(OC(C)=O)C1OC(C)=O (stereo not drawn)	> 100 µM	> 100 µM	31.3 µM	> 100 µM	> 100 µM	78.3 µM	> 100 µM													
CCCCOC(=O)NC(=O)c1cn(CCCOC(=O)CCCCCCCCC(=O)OCCCn2cc(C(=O)NC(=O)OCCCC)c(=O)n(C)c2=O)c(=O)n(C)c1=O	> 100 µM	> 100 µM	> 100 µM	> 100 µM	> 100 µM	> 100 µM	> 100 µM												> 100 µM	
O=C(Oc1c(Cl)cc(Cl)cc1Cl)c1ccccc1Nc1ccnc(C(F)(F)F)c1	> 100 µM	> 100 µM	> 100 µM	6.06 µM	> 100 µM		32.5 µM	4.3 µM	24.1 µM	4.59 µM	4.16 µM			4.11 µM	8.55 µM	> 100 µM	1.74 µM			
Cc1ccc(Nc2nc(-c3ccc(-c4ccc([N+](=O)[O-])cc4)o3)cs2)cc1	> 100 µM	> 100 µM	> 100 µM	> 100 µM	> 100 µM	> 100 µM	> 100 µM												> 100 µM	

From PubChem BioAssay (NCI)
